# From PubChem BioAssay AID1645864 (Buhrlage Lab, Dana-Farber Cancer Institute and Novartis …, 2021)
# Activity calls are given as the source filed them.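 The calls were made as follows: active = maximal inhibition of USP17 at or above 30% in the confirmation dose-response, a value not among the printed readouts; inactive = the rest.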
# Target: Ubiquitin carboxyl-terminal hydrolase 17-like protein 5 (Homo sapiens) (UniProt A8MUK1)
# Experiment: ubiquitin-specific protease 17 DUB inhibitors, concentration-effect assay, cell-free, verification of initial screening actives (AID 1645864)
# Conditions: purified USP17, ubiquitin-rhodamine cleavage fluorescence, 3 h
# Sequence of Ubiquitin carboxyl-terminal hydrolase 17-like protein 5 (Homo sapiens) (A8MUK1 whole entry, looked up): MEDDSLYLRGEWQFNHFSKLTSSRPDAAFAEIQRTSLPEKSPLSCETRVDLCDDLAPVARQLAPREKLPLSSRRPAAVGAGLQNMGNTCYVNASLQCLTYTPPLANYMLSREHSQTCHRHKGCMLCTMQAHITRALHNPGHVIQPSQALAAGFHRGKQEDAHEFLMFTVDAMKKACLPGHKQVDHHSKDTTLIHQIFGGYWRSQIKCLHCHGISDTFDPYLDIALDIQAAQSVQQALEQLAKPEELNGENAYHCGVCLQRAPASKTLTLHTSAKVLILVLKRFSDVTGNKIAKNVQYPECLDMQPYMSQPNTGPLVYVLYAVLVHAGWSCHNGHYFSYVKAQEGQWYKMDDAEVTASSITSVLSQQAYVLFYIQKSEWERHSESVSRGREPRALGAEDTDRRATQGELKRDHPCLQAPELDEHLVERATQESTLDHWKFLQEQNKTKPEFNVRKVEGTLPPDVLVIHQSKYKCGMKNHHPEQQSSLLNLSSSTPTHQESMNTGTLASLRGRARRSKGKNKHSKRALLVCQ
row,IC50,Structure (SMILES)
1,> 50 µM (inactive),CS(=O)(=O)n1nc(NCc2ccc(F)cc2)nc1NCc1ccc(F)cc1
2,> 50 µM (inactive),Cc1cccc(C(=O)N2CCN3Cc4ccccc4N(C)CC3C2)c1 (stereo not given)
3,25 µM,O=C(Nc1cccc(C(F)(F)F)c1)N1CCCn2c(nc3ccccc32)C1
4,1.33 µM,CC1OC(CC(=O)O)CC23OC12C(=O)c1c(O)cccc1C3=O (stereo not given)
5,39.5 µM,Cn1c(=O)c(C(=O)CN2CCN(c3ccc(O)cc3)CC2)c(N)n(Cc2ccccc2)c1=O
6,2.65 µM,Cc1ccc(-n2nc(C(=O)Nc3ccc(C)cn3)c3ncn(C)c(=O)c32)cc1
7,> 50 µM (inactive),C=C1CCC2[C@](C)(CCC[C@]2(C)C(=O)OC)[C@H]1CCc1ccoc1CNC(C)C (stereo not given in full)
8,12.9 µM,Cc1cc(=O)n(CC(=O)Nc2ccccc2F)c(Nc2ccc(F)cc2)n1
9,2.87 µM,COC1=CC(=O)c2c(O)c(C)c(CC(C)=O)c(O)c2C1=O
10,> 50 µM (inactive),CN1CCN(c2ncnc3c2oc2ccc(Cl)cc23)CC1
11,> 50 µM (inactive),FC(F)(F)c1ccccc1CCN1CCc2nc3ccc(Cl)cc3cc2C1
12,> 50 µM (inactive),Fc1ccc(Cc2nc(-c3ccc4nncn4c3)no2)cc1
13,34.1 µM,Cc1cc(Nc2ccc(C(=O)NCc3ccco3)cc2)n2nc(-c3cccnc3)nc2n1
14,2.13 µM,COc1ccc2nc(-c3ccc(NC(=O)c4cccc(OC)c4OC)cc3)cn2n1
15,12.4 µM,COCCCn1c(C(=O)Nc2ccccc2OC)cc2c(=O)n3ccccc3nc21
16,9.45 µM,CN1C(=O)COc2ccc(NC(=O)c3cc(-c4ccccc4)on3)cc21
17,3.37 µM,Nc1c(-c2ccc(Cl)cc2)cnc2cc(-c3ccc(Cl)c(Cl)c3)nn12
18,1.12 µM,Cc1nc2sc(C(=O)Nc3ccccc3Br)c(N)c2c(C)c1C
19,10.8 µM,COc1ccc(-c2nc(SCC(=O)Nc3ccc(C(C)=O)cc3)n[nH]2)cc1
20,3.44 µM,COc1cc(OC)c2c(c1)C(=O)C1=C(COC(C)(O)C1)C2=O (stereo not given)
21,32.5 µM,C=C1CCC2[C@](C)(CCC[C@]2(C)C(=O)OC)[C@H]1CCc1ccoc1/C=C/C(=O)O (stereo not given in full)
22,3.86 µM,N#Cc1ccc(NC(=O)Nc2cccn(Cc3c(F)cccc3Cl)c2=O)cc1
23,> 50 µM (inactive),O=C(NC(Cc1ccccc1)c1nc2ccccc2[nH]1)c1ccccn1 (stereo not given)
24,42.4 µM,O=C(Nc1ccccc1)c1nc(-c2cn(Cc3ccc(F)cc3)nn2)no1

row,IC50,Structure (SMILES)
1,> 50 µM (inactive),CC(=O)N1CCOc2cc(S(=O)(=O)N3CCCC3c3cc(C)no3)ccc21 (stereo not given)
2,> 50 µM (inactive),O=C1c2ccccc2NC2(C(=O)Nc3ccc(Br)cc32)N1c1ccccc1 (stereo not given)
3,2.81 µM,CN(C)C(=O)CSc1nnc(-c2cccc(Cl)c2)n1-c1ccc(Cl)c(C(F)(F)F)c1
4,> 50 µM (inactive),COc1ccc(-c2cc3nc(C)cc(Nc4ccc(F)cc4)n3n2)cc1OC
5,> 50 µM (inactive),O=C(COc1ccc(S(=O)(=O)N2CCOCC2)cc1)N1CCC(Cc2ccccc2)CC1
6,0.49 µM,CC(=O)c1cc2c(=O)c3c(C(=O)O)c(O)c(O)cc3oc2c(C(C)=O)c1-c1coc2cc(O)c(O)c(C(=O)O)c2c1=O
7,> 50 µM (inactive),NS(=O)(=O)c1cc(C(=O)OCC(=O)c2ccc3c(c2)OCCO3)ccc1Cl
8,> 50 µM (inactive),COc1cccc(NC(=O)c2ccc(F)cc2Cl)c1
9,> 50 µM (inactive),N#Cc1cc2c(nc1SCC(=O)NCc1ccccc1)CCCC2
10,21.9 µM,O=C(Nc1cccc(N2CCCC2=O)c1)c1cccc2cccnc12
11,> 50 µM (inactive),O=C(Nc1cccc(F)c1)c1ncoc1-c1ccco1
12,> 50 µM (inactive),CCOc1ccc(NC(=O)CSc2nc3n[nH]c(C)c3c(=N)n2-c2ccc(OC)cc2)cc1
13,> 50 µM (inactive),CC(=O)N1Cc2ccccc2CC2(CCCN(CC3CCOCC3)C2)C1 (stereo not given)
14,> 50 µM (inactive),COc1ccc(-c2cnnn2-c2ccc(NC(=O)c3c(F)cccc3F)cc2)cc1OC
15,> 50 µM (inactive),O=C(Nc1ccc(SCc2nnc(-c3ccccc3)o2)cc1)C1CC1
16,34.4 µM,CC1(C)Cc2c(c(-c3ccco3)nc3sc4c(SCCCc5ccccc5)ncnc4c23)CO1
17,17 µM,CC(=O)c1sc(NC(=O)c2ccccc2-c2ccc(C(F)(F)F)cc2)nc1C
18,39.7 µM,CCOc1cc(C2C3=C(CC(C)(C)CC3=O)Nc3onc(C)c32)ccc1O (stereo not given)
19,> 50 µM (inactive),COc1ccc2nc3c(cc2c1)c(=O)n(C)c1c3c(=O)n(-c2ccccc2)c(=O)n1-c1ccccc1
20,> 50 µM (inactive),CCn1cnc2c1c(=O)n(CC(=O)NCc1ccccc1Cl)c(=O)n2Cc1ccccc1
21,2.79 µM,Cc1ccc(NC(=O)c2ccc3nn(CC(=O)Nc4ccc(F)cc4F)c(=O)n3c2)cc1
22,> 50 µM (inactive),Cc1ccc(C(=O)Nc2ccc3nccnc3c2)cc1
23,> 50 µM (inactive),O=C(CSc1nc2ccccc2n1S(=O)(=O)c1ccc(Br)cc1)Nc1ccc([N+](=O)[O-])cc1Cl
24,> 50 µM (inactive),COC1C(O)=C2C(=O)O/C(C)=C/C=C/C=C/C=C/CC(c3ccccc3)NC(=O)/C=C/C=C/C=C\C=C\C2(C)C1O (stereo not given)

row,IC50,Structure (SMILES)
1,> 50 µM (inactive),N#Cc1ccccc1COC(=O)c1ccc2ccccc2n1
2,34 µM,O=C(CNC(=O)c1cc2ccccc2[nH]1)Nc1ccc2c(c1)OCCO2
3,14 µM,CO[C@H]1CC[C@H](O)c2c1oc1c3c4c(c(O)c1c2=O)-c1c(cc2c(Cl)c(C)n(N)c(=O)c2c1O)C[C@@H]4OCO3
4,> 50 µM (inactive),Cc1ccc2c(Nc3ccc(CC(=O)O)cc3)c(C(=O)N3CCCC3)cnc2n1
5,> 50 µM (inactive),CSc1nc2ncc3c(=O)n(CCc4ccccc4)ccc3n2n1
6,> 50 µM (inactive),CC(=O)c1oc2nc3c(c(-c4ccc(Cl)cc4)c2c1N)CCc1ccccc1-3
7,46.1 µM,Cc1ccc(C)c(S(=O)(=O)N2CCC3(CC2)NC(=O)c2ccccc2N3)c1
8,1.57 µM,COc1cc(C)cc2c1C(=O)c1c(cc(O)c(Cl)c1O)C2=O
9,38.6 µM,COc1cccc(C(=O)NCC(=O)Nc2nc3ccccc3[nH]2)c1
10,> 50 µM (inactive),O=C(O)c1nccnc1C(=O)N1CCc2ccccc2C1
11,34.4 µM,Cc1c(C)n(-c2ccccc2)c2ncn(CC(=O)NCCCc3ccccc3)c(=O)c12
12,2.42 µM,Cc1ccc(NC(=O)c2sc(=S)n(CCc3ccccc3)c2N)cc1
13,> 50 µM (inactive),COc1cccc2c1OCC(NS(=O)(=O)c1cc(C)ccc1C)C2 (stereo not given)
14,> 50 µM (inactive),CC(=O)c1ccc(Cc2ncc(C(F)(F)F)cc2Cl)s1
15,49.4 µM,COc1cc(O)c2c(c1)C1=CC(=O)C(O)=C[C@]1(C)OC2=O
16,8.65 µM,COc1ccc(-c2nc3n(n2)C(CC(=O)Nc2cccc4ccccc24)C(=O)N3)cc1 (stereo not given)
17,21.7 µM,Cc1ccccc1NC(=O)CNc1nc(Nc2ccccc2)nc(Nc2ccccc2)n1
18,43.1 µM,Cc1c(S(=O)(=O)NC2CCCCNC2=O)sc2ccc(Cl)cc12 (stereo not given)
19,> 50 µM (inactive),O=C(Nc1nnc2n1CCCS2)c1cc2ccccc2o1
20,0.674 µM,Cc1c(-c2nsc(NC(=O)c3ccc(Cl)cc3)n2)nnn1-c1ccccc1F
21,> 50 µM (inactive),N#Cc1ccc(COC(=O)c2ccc3ccccc3n2)cc1
22,> 50 µM (inactive),Cc1cc(/C=C2/C(=N)N3C(c4ccccc4)=CSC3=NC2=O)c(C)n1-c1ccc2ccccc2c1
23,28.1 µM,O=C(c1cc(-c2ccncc2)n[nH]1)N1CCC(C(=O)N2CC=C(c3ccccc3)CC2)CC1
24,> 5 µM (inactive),COc1cc(NC(=O)Cn2c(=O)n(-c3ccc(CC(=O)NC4CCCC4)cc3)c(=O)c3ccccc32)cc(OC)c1

row,IC50,Structure (SMILES)
1,29.2 µM,COc1ccc2nc(NC(=O)C(CC(C)C)NS(=O)(=O)c3ccc4c(c3)CCN4C(C)=O)sc2c1 (stereo not given)
2,28.1 µM,Cc1ccc(Nc2nc(C(=O)NCc3ccc4c(c3)OCO4)cc3occc23)cc1Cl
3,> 50 µM (inactive),COc1cccc(NC(=O)C2Cn3ccnc3C3(CCN(C(C)=O)CC3)O2)c1 (stereo not given)
4,11.3 µM,O=C(CCc1nnc2n(Cc3ccccc3)c(=O)c3ccccc3n12)N1CCN(c2ccccn2)CC1
5,0.609 µM,COc1cc(C)c2c(=O)c3c(oc2c1)C(=O)c1c(O)c(OC)cc(O)c1C3=O
6,> 50 µM (inactive),Cc1cc(SCc2ncon2)c(C)cc1Cl
7,45.6 µM,Cc1noc(-c2cc(=O)n(CC(=O)NCc3ccccc3)c3ccccc23)n1
8,0.167 µM,COc1cccc(C(=O)Oc2ccc3c(=O)c(-c4ccc(OC)c(OC)c4)coc3c2)c1
9,15.8 µM,O=C(COc1ccc2ccccc2c1)Nc1cccc2ccccc12
10,> 50 µM (inactive),COc1ccc(-c2cc(-c3ccc(O)cc3)nc(N)c2C#N)cc1OC
11,2.55 µM,COc1ccc(COc2ccc3c(C)c(CC(=O)N4CC[C@@]5(O)CCCC[C@H]5C4)c(=O)oc3c2)cc1
12,> 50 µM (inactive),CCCN1CCN(C(=O)c2cc(NC(=O)C3CCC3)cc3nc(C)ccc23)CC1
13,> 50 µM (inactive),O=C(COC(=O)c1ccc(CN2CCCC2=O)cc1)c1ccc2c(c1)OCCO2
14,> 50 µM (inactive),O=C(NCc1ccccc1)c1ccc(-c2ccc(N3CCCC3)nn2)cc1
15,> 50 µM (inactive),CN(C)S(=O)(=O)N1CCCC2(C1)Nc1cccnc1NC2=NC1CCCC1 (stereo not given)
16,> 50 µM (inactive),CCc1c(Cl)c(O)c(Cl)c(O)c1C(=O)O[C@H]1C(C)O[C@@H](OC/C2=C\C=C\CC(O)/C(C)=C/C(CC)C(O[C@@H]3OC(C)(C)[C@H](O)C(OC(=O)C(C)C)[C@@H]3O)/C(C)=C/C(C)=C/CC(C(C)O)OC2=O)[C@@H](OC)C1O (stereo not given in full)
17,44.9 µM,COc1ccc(S(=O)(=O)Nc2ccc(Nc3ccc(-n4cccn4)nn3)cc2)cc1
18,> 50 µM (inactive),COc1ccccc1-c1ccc(CN2[C@@H](c3ccccc3)C[C@@H]3NC(=O)CCC[C@H]32)cc1
19,> 50 µM (inactive),CCCc1nc2sc3c(N(CC)CC)ncnc3c2c2c1CCC2
20,29.2 µM,CC(=O)Nc1ccc(-n2cnc(C(=O)NC(C)c3ccccc3)c2)nc1 (stereo not given)
21,17.9 µM,CCc1ccc(-n2c(=O)c3ccccc3n(CC(=O)NCCC3=CCCCC3)c2=O)cc1
22,> 50 µM (inactive),COC(=O)C1C(c2ccc(OC)cc2)C2(C(=O)c3ccccc3C2=O)C2C=Cc3ccccc3N12 (stereo not given)

row,Structure (SMILES),IC50
1,CC(=O)O[C@H]1[C@]2(O)C[C@]34SS[C@](CO)(C(=O)N3[C@@H]2C[C@@]12O[C@@H](C)C(C)(C)C2=O)N(C)C4=O,> 50 µM (inactive)
